Laboratory results as given in US9770452B2, “Quinoxaline derivatives as GPR6 modulators” (Takeda Pharmaceutical Company Limited, priority 2012, dated 2017).
Where a name gives a salt, the structure may show the parent alone.

Biological target: T1, GPR6 receptor (Homo sapiens, UniProt P46095)
T1 construct: expressed in transfected cells
Assay: Inhibition of cAMP Activity of GPR6 In Vitro Assay (CHO-K1 cells, HTRF cAMP)
Assay type: cell-based
Details: not given
Method in brief: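 CHO-K1 cells with doxycycline-induced (1 μg/ml, 20 h) GPR6 treated with compounds 45 min at 37 °C in Ringer's buffer (pH 7.4) with 0.5% fatty acid free BSA. Constitutive cAMP measured by Lance HTRF Ultra cAMP; IC50 from four-parameter logistic fit.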

T1 sequence (P46095 whole entry): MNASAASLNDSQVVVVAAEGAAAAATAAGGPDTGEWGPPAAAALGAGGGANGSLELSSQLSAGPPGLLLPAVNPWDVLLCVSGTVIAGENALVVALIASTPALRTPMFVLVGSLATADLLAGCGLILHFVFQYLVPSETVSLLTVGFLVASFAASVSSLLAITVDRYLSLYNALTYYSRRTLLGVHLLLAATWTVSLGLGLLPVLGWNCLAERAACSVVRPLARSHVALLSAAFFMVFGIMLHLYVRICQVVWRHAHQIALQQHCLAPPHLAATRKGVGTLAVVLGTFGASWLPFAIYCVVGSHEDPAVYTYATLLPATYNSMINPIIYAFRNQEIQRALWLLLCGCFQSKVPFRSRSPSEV

Row | Compound | IC50
1 | COc1ccc(OC2CCN(c3nc4c(N5CCOCC5)nccc4nc3NC3CC3)CC2)c(F)c1 [Cpd 606, N-cyclopropyl-3-(4-(2-fluoro-4-methoxyphenoxy)piperidin-1-yl)-5-morpholinopyrido[3,4-b]pyrazin-2-amine, 2,2,2-trifluoroacetic acid salt] | 0.717 µM

Same assay, conditions: compounds of Compound Table 1; inhibition of constitutive cAMP activity of GPR6 expressed in CHO-K1 cells; approximate IC50; read-out: IC50

Row | Compound | IC50
2 | Clc1ccc(NC2CCN(c3nc4ccccc4nc3NC3CC3)CC2)cc1 [Cpd 413, 3-(4-((4-chlorophenyl)amino)piperidin-1-yl)-N-cyclopropylquinoxalin-2-amine, 22,2,2-trifluoroacetic acid salt] | 0.019 µM
3 | N#Cc1ccc2nc(NC3CC3)c(N3CCC(C(F)c4cc(F)ccc4F)CC3)nc2c1 (stereo not drawn) [Cpd 471] | 0.075 µM
4 | N#Cc1ccc2nc(NC3CC3)c(N3CCC(C(F)c4ccc(F)cc4F)CC3)nc2c1 (stereo not drawn) [Cpd 481] | 0.024 µM
5 | O=C(c1ccsc1Cl)C1CCN(c2nc3cnccc3nc2NC2CC2)CC1 [Cpd 572, (2-chlorothiophen-3-yl)(1-(2-(cyclopropylamino)pyrido[3,4-b]pyrazin-3-yl)piperidin-4-yl)methanone, hydrogen chloride salt] | 0.021 µM
6 | O=C(c1cc2nc(NC3CC3)c(N3CCC([C@H](F)c4ccc(F)cc4F)CC3)nc2cn1)N1CCC1 [Cpd 591, (S)-azetidin-1-yl(2-(cyclopropylamino)-3-(4-((2,4-difluorophenyl)fluoromethyl)piperidin-1-yl)pyrido[3,4-b]pyrazin-7-yl)methanone] | 0.022 µM
7 | COc1ccc(OC2CCN(c3nc4c(C(=O)N(C)C)nccc4nc3NC3CC3)CC2)c(F)c1 [Cpd 604, 2-(cyclopropylamino)-3-(4-(2-fluoro-4-methoxyphenoxy)piperidin-1-yl)-N,N-dimethylpyrido[3,4-b]pyrazine-5-carboxamide] | 0.054 µM
8 | CC(C)Nc1nc2cnncc2nc1N1CCC(Oc2ccc(F)cc2F)CC1 [Cpd 633, 3-(4-(2,4-difluorophenoxy)piperidin-1-yl)-N-isopropylpyrazino[2,3-d]pyridazin-2-amine, 2,2,2-trifluoroacetic acid salt] | 0.004 µM
9 | CC(C)Nc1nc2cnncc2nc1N1CCC(Oc2ccc(Cl)cc2F)CC1 [Cpd 644, 3-(4-(4-chloro-2-fluorophenoxy)piperidin-1-yl)-N-isopropylpyrazino[2,3-d]pyridazin-2-amine, 2,2,2-trifluoroacetic acid salt] | 0.007 µM
10 | C[C@@H]1C[C@H]1Nc1nc2cnncc2nc1N1CCC([C@@H](F)c2ccc(F)cc2F)CC1 [Cpd 645, 3-(4-((R)-(2,4-difluorophenyl)fluoromethyl)piperidin-1-yl)-N-((1R,2R)-2-methylcyclopropyl)pyrazino[2,3-d]pyridazin-2-amine, 2,2,2-trifluoroacetic acid salt] | 0.145 µM
11 | (1-(2-(cyclopropylamino)pyrido[3,4-b]pyrazin-3-yl)piperidin-4-yl)(2,4,6-trifluorophenyl)methanone, 2,2,2-trifluoroacetic acid salt [Cpd 444] | 0.2 µM
12 | (1-(2-(cyclopropylamino)pyrido[3,4-b]pyrazin-3-yl)piperidin-4-yl)(2-(methylthio)phenyl)methanone, 2,2,2-trifluoroacetic acid salt [Cpd 581] | 0.006 µM
13 | (1-(2-(cyclopropylamino)pyrido[3,4-b]pyrazin-3-yl)piperidin-4-yl)(2-fluoro-5-(methylthio)phenyl)methanone, 2,2,2-trifluoroacetic acid salt [Cpd 593] | 0.023 µM
14 | (1-(2-(cyclopropylamino)pyrido[3,4-b]pyrazin-3-yl)piperidin-4-yl)(3-fluorophenyl)methanone, 2,2,2-trifluoroacetic acid salt [Cpd 568] | 2.18 µM
15 | (1-(2-(cyclopropylamino)pyrido[3,4-b]pyrazin-3-yl)piperidin-4-yl)(3-methoxyphenyl)methanone [Cpd 564] | 11 µM
16 | (1-(2-(cyclopropylamino)pyrido[3,4-b]pyrazin-3-yl)piperidin-4-yl)(o-tolyl)methanone, 2,2,2-trifluoroacetic acid salt [Cpd 565] | 15.4 µM
17 | (1-(2-(cyclopropylamino)pyrido[3,4-b]pyrazin-3-yl)piperidin-4-yl)(thiophen-2-yl)methanone, 2,2,2-trifluoroacetic acid salt [Cpd 573] | 2.8 µM
18 | (1-(2-(cyclopropylamino)pyrido[3,4-b]pyrazin-3-yl)piperidin-4-yl)(thiophen-3-yl)methanone, 2,2,2-trifluoroacetic acid salt [Cpd 584] | 1.74 µM
19 | (2-(cyclopropylamino)-3-(4-(2,4-difluorobenzyl)piperazin-1-yl)pyrido[3,4-b]pyrazin-7-yl)(morpholino)methanone, 2,2,2-trifluoroacetic acid salt [Cpd 611] | 0.044 µM
20 | (2-(cyclopropylamino)-3-(4-(2-fluoro-4-methoxyphenoxy)piperidin-1-yl)pyrido[3,4-b]pyrazin-7-yl)(4-methylpiperazin-1-yl)methanone [Cpd 603] | 1.02 µM
21 | (2-bromophenyl)(1-(2-(cyclopropylamino)pyrido[3,4-b]pyrazin-3-yl)piperidin-4-yl)methanone, 2,2,2-trifluoroacetic acid salt [Cpd 585] | 6.04 µM
22 | (2-bromopyridin-3-yl)(1-(2-(cyclopropylamino)pyrido[3,4-b]pyrazin-3-yl)piperidin-4-yl)methanone, 2,2,2-trifluoroacetic acid salt [Cpd 586] | 2.29 µM
23 | (2-chloro-4-fluorophenyl)(4-(2-(cyclopropylamino)pyrido[3,4-b]pyrazin-3-yl)piperazin-1-yl)methanone, 2,2,2-trifluoroacetic acid salt [Cpd 363] | 0.23 µM
24 | (2-chloro-5-fluorophenyl)(1-(2-(cyclopropylamino)pyrido[3,4-b]pyrazin-3-yl)piperidin-4-yl)methanone, 2,2,2-trifluoroacetic acid salt [Cpd 567] | 5.78 µM
25 | (2-chloro-6-fluorophenyl)(1-(2-(cyclopropylamino)pyrido[3,4-b]pyrazin-3-yl)piperidin-4-yl)methanone [Cpd 575] | 6.75 µM
26 | (2-chlorophenyl)(1-(2-(cyclopropylamino)pyrido[3,4-b]pyrazin-3-yl)piperidin-4-yl)methanone, 2,2,2-trifluoroacetic acid salt [Cpd 557] | 1.92 µM
27 | (2-fluoro-4-methoxyphenyl)(1-(3-(isopropylamino)pyrazino[2,3-d]pyridazin-2-yl)piperidin-4-yl)methanone, 2,2,2-trifluoroacetic acid salt [Cpd 641] | 0.014 µM
28 | (3-bromo-4-methylphenyl)(4-(3-(cyclopropylamino)quinoxalin-2-yl)piperazin-1-yl)methanone, 2,2,2-trifluoroacetic acid salt [Cpd 154] | 0.72 µM
29 | (4-(2-(cyclopropylamino)pyrido[3,4-b]pyrazin-3-yl)piperazin-1-yl)(4-(difluoromethyl)phenyl)methanone, 2,2,2-trifluoroacetic acid salt [Cpd 289] | 0.27 µM
30 | (4-bromo-3-fluorophenyl)(4-(3-(cyclopropylamino)-7-fluoroquinoxalin-2-yl)piperazin-1-yl)methanone [Cpd 247] | 1.49 µM
